“Also recorded” adds a separate entry of the source. Where a name gives a salt, the structure may show the parent alone. Read-outs that look alike come from different tables or passages of the source. Square brackets hold non-standard residues; d marks the D form. Peptide text beside a SMILES is read from it. * marks the point of attachment. Sta = CC(C)C[C@H](N)[C@@H](O)CC(=O)O; Isovaleryl = CC(C)CC(=O)*; Cbz = O=C(OCc1ccccc1)*; NHOH = ON*
Columns and labels:
[1] = tested on: lice hatching proteases in the egg shell washings (ESW); experiment: Gelatine substrate SDS-PAGE of egg shell washings treated with protease inhibitors; type: biochemical, Pediculus humanus humanus; details: 3 hrs at 37° C.
Description: Within 12 hours of hatching 50 body lice eggs (Pediculus humanus humanus) were removed from the hair and placed in a 1 ml eppendorf tube. 20 μL of distilled water was added to the unhatched eggs and the preparation incubated for 30 minutes at 32° C. The 20 μL was recovered, freeze dried and stored at −70° C. A number of other samples were also collected as described. Hair samples from which unhatched lice eggs had been removed were also collected and incubated as described above. In addition, a sample of unhatched eggs and a sample of hair from which lice eggs had been removed were collected 7 days post laying (within 24 hrs of egg hatching). Both samples were washed in 10 mls of a 1% solution of sodium hypochlorite for 1 minute followed by a 5×1 minute washes in 25 mls in distilled water to remove the hypochlorite. These samples were then incubated in 20 μL of distilled water as described above. In addition, a group of 25 lice eggs that were within 24 hours of hatching, were pretreated with 1% sodium hypochlorite, washed as described above and left to hatch. Within 1-2 hours after hatching the empty egg shells were incubated in 20 μL of distilled water as described above, the washings collected from the hatched egg shells and stored at −70° C. All of the extract samples were then freeze-dried overnight. The freeze-dried samples were then resuspended in 15 μL of non-reducing SDS sample buffer, centrifuged at 10,000 g for 2 minutes and the entire 15 μL loaded on to 10% gelatine substrate SD S-PAGE gels. Gels were run at 4° C. for 10 minutes at 10 mA followed by a further 25 minutes at 15 mA per gel. They were then incubated for 2×20 minutes in a 2.5% Triton-X 100 solution followed by a three hour incubation in 0.1M Tris/HCl containing 1 mM CaCl2 pH 8.0. Activity was detected as clear areas on the gel the result of protease activity degrading the gelatine within the gel.
10% SDS-PAGE gelatine substrate gels were loaded with freeze dried egg shell washings from 100 lice eggs that had been resuspended in 50 μl of non-reducing sample buffer with samples run at 10 μl per lane. Gels were run at 4° C. for 10 minutes at 10 mA per gel followed by a further 25 minutes at 15 mA per gel. Gels were then cut into strips and each strip incubated for 2×20 minutes in a 2.5% Triton-X 100 solution containing a specific inhibitor. The inhibitors used were the serine protease inhibitor PMSF (5 mM), the metalloprotease inhibitor 1,10-phenanthroline (10 mM), the aspartic protease Pepstatin (5 μM) and the cysteine inhibitor E-64 (10 μM). The gel strips were then incubated in 0.1M Tris/HCl containing 1 mM CaCl2 pH 8 containing the different protease inhibitors for 3 hrs at 37° C., before being stained in Coomassie blue and destained as previously described.

lice eggs [2] = experiment: Time-course in vitro lice egg hatching assay; type: in vivo, clothing lice (Pediculus humanus humanus); details: for effect on egg hatching: results not shown
lice eggs [3] = experiment: Lice egg-hatch bioassay, eggs treated five days post laying; type: in vivo, clothing lice (Pediculus humanus humanus)
Description: To evaluate the potential effects of protease inhibitors on lice egg hatching it was necessary to develop a reliable in vitro bioassay. Male and female clothing lice were fed on a rabbit as previously described. […] During this period the female lice laid their eggs and attached them to the woven cloth. All lice would then be removed and the eggs permitted to incubate for the following 5 days. […] The eggs would then progress through to their final stages of development and hatch. In untreated control eggs a reliable average percentage hatch of between 85-95 percent was obtained using the in vitro egg hatch assay. […] Lice eggs were laid onto cloth as described above. […] Protease inhibitor solutions were typically prepared as stock solutions and added fresh at the appropriate concentration. Specifically stock solutions were prepared as follows: 1,10-phenanthroline (200 mM in methanol) and bestatin (5 mg/ml in methanol). In addition, the equivalent levels of the solvent were added to the non-inhibitor containing controls eggs to test for any buffer alone effects. Percentage hatch inhibition was calculated as the percentage reduction in egg hatch compared to the untreated control.

[4] = tested on: Plutella xylostella eggs (Waite strain); experiment: Egg hatching of Plutella xylostella
Description: The egg masses were then placed in a humid box at 25 degrees until egg hatch. Control eggs were exposed to absolute methanol as described above. At day 6 post laying the eggs were assessed from the different treatments and the percentage of egg hatch determined relative to the control as shown in Table 9.
Batches of Plutella eggs that were laid on either fine cloth or parafilm were dipped in a specific inhibitor solution for between 2-10 seconds, the excess solution was drained by blotting with dry tissue paper. The egg masses were then placed in a humid box at 25 degrees until egg hatch. Control eggs were exposed to absolute methanol as described above or not treated. At day 6 post laying the eggs were assessed from the different treatments and the percentage of egg hatch determined relative to the controls as shown in Tables 10 and 11.
Batches of Plutella eggs that were laid on fine cloth were dipped in a specific inhibitor solution for approximately 2 seconds, the excess solution was drained by blotting with dry tissue paper. The egg masses were then placed in a humid box at 25 degrees until egg hatch. Control eggs were exposed to absolute methanol as described above or not treated. At day 6 post laying the eggs were assessed from the different treatments and the percentage of egg hatch determined relative to the control as shown in Table 12.
The egg masses were then placed in a humid box at 25 degrees until egg hatch. Control eggs were exposed to absolute ethanol as described above. On day 6 post laying the eggs were assessed from the different treatments and the percentage of egg hatch determined relative to the control.

[5] = tested on: Helicoverpa armigera eggs (Tatura×Toowoomba strains); experiment: Egg hatching of Helicoverpa armigera; details: Table 15
Description: Several hundred Helicoverpa armigera eggs (Tatura×Toowoomba strains) were collected, that had been laid on fine mesh cloth over a 24 hour period.
Batches of Helicoverpa eggs were exposed to a specific inhibitor solution for between 2-10 seconds the excess solution drained by blotting with dry tissue paper. The egg masses were then placed in a humid box at 25 degrees until egg hatch. Control eggs were exposed to absolute methanol as described above.

[6] = Pediculus humanus, 5 mg/ml, read-out: % Inhibition of lice egg hatching (maximum over the time-course)
[7] = Pediculus humanus, 5 mM, read-out: % Inhibition of lice egg hatching (maximum over the time-course)
[8] = Table 10, 1 mM, eggs laid on cloth
[9] = Table 10, 10 mM, eggs laid on cloth
[10] = Table 11, 1 mM, eggs laid on parafilm
[11] = Table 12, 0.01 mM, cloth, dipped approximately 2 seconds
[12] = Table 12, 0.1 mM, cloth, dipped approximately 2 seconds
[13] = Table 12, 1 mM, cloth, dipped approximately 2 seconds
[14] = Table 12, 10 mM, cloth, dipped approximately 2 seconds

## CC(C)CC(=O)N[C@H](C(=O)N[C@H](C(=O)N[C@@H](CC(C)C)[C@@H](O)CC(=O)N[C@@H](C)C(=O)N[C@@H](CC(C)C)[C@@H](O)CC(=O)O)C(C)C)C(C)C [pepstatin] (Isovaleryl-VV[Sta]A[Sta]-OH)
[1]; 5 μM inhibitor
  protease activity of the ESW: did not show any reduction in protease activity; also recorded: No reduction in protease activity

## c1ccc(-c2ccccn2)nc1 [2,2′-dipyridyl]
Lice eggs [2]; 10 mM
  % Inhibition of lice egg hatching (maximum over the time-course): 100%
Lice eggs [2]; Table 5, […], per replicate
  Ph (number of eggs partly hatched): 0
Lice eggs [2]; in vivo
  lice egg hatching: completely inhibited

## CN(C)[C@@H]1C(O)=C(C(N)=O)C(=O)[C@@]2(O)C(O)=C3C(=O)c4c(O)cccc4[C@@](C)(O)[C@H]3C[C@@H]12 [tetracycline, reference compound]
Lice eggs [2]; [6]
  inhibition at 5000 µg/mL: 89%

## CC(C)C[C@H](NC(=O)[C@@H](O)[C@H](N)Cc1ccccc1)C(=O)O [bestatin, reference compound]
Lice eggs [3]; 5 mM, eggs treated 5 days post laying
  lice egg hatching: significantly inhibit lice egg hatching
Lice eggs [3]; added within 24 hours of hatching
  inhibition of egg hatching: variable inhibition
Lice eggs [2]; [7]
  inhibition at 5000 µM: 58%
Lice eggs [2]; Pediculus humanus, 144 h, 5 mM, treated 144 hr post egg laying, read-out: Percent inhibition of egg hatching
  inhibition at 5000 µM: 53%

## [H]/N=C(\N/C(=N/[H])NCCCCCCNC(=N)NC(=N)Nc1ccc(Cl)cc1)Nc1ccc(Cl)cc1 [chlorhexidine dihydrochloride, reference compound]
Lice eggs [2]; concentration not given
  % Inhibition of lice egg hatching (maximum over the time-course): 0%

## O=S(=O)(F)Cc1ccccc1 [PMSF]
[1]; 5 mM inhibitor
  protease activity of the ESW: No reduction in protease activity

## c1ccc(-c2ccc3ccccc3n2)nc1 [2-(2-pyridinyl)quinoline]
[4]; Table 16, 10 mM, relative to control (100% ETOH)
  % Inhibition: able to inhibit egg hatching

## C[C@H]1c2cccc(O)c2C(=O)C2=C(O)[C@]3(O)C(=O)C(C(N)=O)=C(O)[C@@H](N(C)C)[C@@H]3[C@@H](O)[C@@H]21 [doxycycline, reference compound]
Lice eggs [2]; 5 mg/ml
  % Inhibition of lice egg hatching (maximum over the time-course): 69%
Lice eggs [2]; [6]
  inhibition at 5000 µg/mL: 65%

## Cc1ccnc(-c2cc(C)ccn2)c1 [4,4′-dimethyl-2,2′-dipyridyl]
[5]; 1 mM
  Number hatched: 23
  Number unhatched: 29
[5]; 10 mM
  Number hatched: 8
  Number unhatched: 43
[4]; [8]
  Number hatched: 0
  Number unhatched: 30
[4]; Table 10, 1 mM, eggs laid on cloth, relative to controls
  % Inhibition: 100%
[4]; [9]
  Number hatched: 0
  Number unhatched: 36
[4]; Table 10, 10 mM, eggs laid on cloth, relative to controls
  % Inhibition: 100%
[4]; [10]
  Number hatched: 10
  Number unhatched: 121
[4]; Table 11, 1 mM, eggs laid on parafilm, relative to controls
  % Inhibition: 91%
[4]; Table 11, 10 mM, eggs laid on parafilm
  Number hatched: 0
[4]; Table 11, 10 mM, eggs laid on parafilm, relative to controls
  % Inhibition: 100%
[4]; [11]
  Number hatched: 29
  Number unhatched: 1
[4]; [12]
  Number hatched: 33
  Number unhatched: 18
[4]; [13]
  Number hatched: 0
  Number unhatched: 63
[4]; [14]
  Number hatched: 1
  Number unhatched: 77

## CNC(=O)[C@H](Cc1c[nH]c2ccccc12)NC(=O)[C@@H](CC(=O)NO)CC(C)C [GM 6001, reference compound]
Lice eggs [2]; concentration not given
  % Inhibition of lice egg hatching (maximum over the time-course): 0%

## O=C(O)CN(CCOCCOCCN(CC(=O)O)CC(=O)O)CC(=O)O [EGTA, reference compound]
Lice eggs [2]; 10 mM
  effect on egg hatching: did not appear to have an effect

## CC(C)C[C@@H](N)[C@H](O)C(=O)N[C@H](C(=O)N[C@H](C(=O)N[C@@H](CC(=O)O)C(=O)O)C(C)C)C(C)C [amastatin, reference compound]
Lice eggs [2]; [7]
  inhibition at 5000 µM: 26%

## CC(C)C[C@H](NC(=O)[C@@H](O)[C@H](N)Cc1ccc([N+](=O)[O-])cc1)C(=O)O [nitrobestatin, reference compound]
Lice eggs [2]; 1 mg/ml
  % Inhibition of lice egg hatching (maximum over the time-course): 0%

## CC(C)C[C@H](NC(=O)[C@@H]1CCCN1C(=O)OCc1ccccc1)C(=O)NCC(=O)NO [N-CBZ-PRO-LEU-GLY hydroximate, reference compound] (Cbz-Pro-Leu-Gly-{NHOH})
Lice eggs [2]; 10 mM
  % Inhibition of lice egg hatching (maximum over the time-course): 0%

## C[C@H](CS)C(=O)N1CCC[C@H]1C(=O)O [captopril, 1-[(2S)-3-mercapto-2-methyl-1-oxopropyl]-L-proline, reference compound]
Lice eggs [2]; Pediculus humanus, 23 mM, read-out: % Inhibition of lice egg hatching (maximum over the time-course)
  inhibition at 23000 µM: 27%

## CO[C@@H]1[C@H](OC(=O)/C=C/C=C/C=C/C=C/C(=O)O)CC[C@]2(CO2)[C@H]1[C@@]1(C)O[C@@H]1CC=C(C)C [fumagillin, reference compound]
Lice eggs [2]; [7]
  inhibition at 5000 µM: 0%

## O=C(O)CNC(=O)C(CS)Cc1ccccc1 [D-L thiorophan, reference compound]
Lice eggs [2]; 1 mg/ml
  % Inhibition of lice egg hatching (maximum over the time-course): 20%

## CN(C)c1ccc(O)c2c1C[C@H]1C[C@H]3[C@H](N(C)C)C(O)=C(C(N)=O)C(=O)[C@@]3(O)C(O)=C1C2=O [minocycline, reference compound]
Lice eggs [2]; [6]
  inhibition at 5000 µg/mL: 55%

## CC(C)C[C@H](N)[C@](O)(Cc1cnc[nH]1)C(=O)O [leuhistin, reference compound]
Lice eggs [2]; 5 mM
  % Inhibition of lice egg hatching (maximum over the time-course): 0%

## CC(C)C[C@H](N)CS [L-leucinthiol, reference compound]
Lice eggs [2]; [7]
  inhibition at 5000 µM: 0%

## CC(C)C[C@H](NP(=O)(O)O[C@@H]1O[C@@H](C)[C@H](O)[C@@H](O)[C@H]1O)C(=O)N[C@@H](Cc1c[nH]c2ccccc12)C(=O)O [phosphoramidon, N-(alpha-rhamnopyranosyloxy-hydroxyphosphinyl)-L-leucyl-L-tryptophan, reference compound]
Lice eggs [2]; [7]
  inhibition at 5000 µM: 41%

## CCCCC[C@H](CC(=O)NO)C(=O)N[C@H](C(=O)N1CCC[C@H]1CO)C(C)C [actinonin, reference compound]
Lice eggs [2]; [7]
  inhibition at 5000 µM: 0%

## O=C(O)CN(CCN(CC(=O)O)CC(=O)O)CC(=O)O [EDTA, reference compound]
Lice eggs [2]; 100 mM
  effect on egg hatching: did not appear to have an effect

## CC(C)C[C@H](NC(=O)[C@H]1O[C@@H]1C(=O)O)C(=O)NCCCCN=C(N)N [Inhibitor E-64]
[1]; 10 μM inhibitor
  protease activity of the ESW: No reduction in protease activity
